{
  "source": "paper PMC11347161",
  "about": "“Sequence diversity of apidaecin-like peptides arresting the terminating ribosome” (Nucleic Acids Research, 2024)",
  "system": "E. coli BL21 cells",
  "assay": "Negative (depletion) selection of clones expressing Api variants, NGS",
  "format": "cell-based",
  "conditions": "log2-fold change of clone abundance, three replicates, edgeR",
  "procedure": "Prior to the library screening, pilot experiments were conducted to optimize arabinose concentration. To achieve this, E. coli BL21 cells transformed with the pApi plasmid carrying the wt Api gene were plated on LB/agar plates supplemented with Amp and increasing concentrations of arabinose in the 0.05–0.2% range. […] Subsequent library depletion experiments were carried out on plates containing 0.05% arabinose.\nFor the negative selection targeted at depleting the clones expressing active Api-like peptides, the 2 ml library stock containing a total of ∼2 × 10^9 colony forming units (cfu) was thawed, diluted 3-fold in LB medium and allowed to recover for 30 min at 37°C. Subsequently, the cultures with the recovered cells were thoroughly mixed, and equal volumes (300 μl) were plated on ten LB/Amp plates supplemented with 2% glucose (for the total library) or ten LB/Amp plates supplemented with 0.05% arabinose (for the library depleted of clones expressing active Api variants). After incubation at 37°C for 16 h, clones were washed off the plates and cell suspensions were used for preparation of the total plasmid, resulting in the pApi(Glu) and pApi(Ara) plasmid preps. The depletion experiments were carried out in three independent replicates.\nFor deep sequencing of the genes encoding Api-like peptides, the peptide-coding genes were PCR-amplified from the total pApi(Glu) and pApi(Ara) plasmids. Two 50 μl PCR reactions were carried out for each sample using Q5 DNA polymerase (New England Biolabs). The reactions were run in the manufacturer provided buffer, each reaction containing 20 ng of plasmid DNA and 10 pmol of primers Api_Lib_F_i5X and Api_Lib_R_i7X (Supplementary Table S2) which added specific bar codes to the individual samples. PCR amplification was carried out under the following conditions: 98°C, 30 s; 10 cycles of [98°C/10 s, 56°C/20 s, 72°C/10 s]; 72°C 120 s. The PCR products were size-fractionated and extracted from the denaturing 8% polyacrylamide gel. Bar-coded DNA libraries (Supplementary Figure S1B) were combined and sequenced on Illumina MiSeq after being spiked in with PhiX Control v3 library (Illumina) to compensate for sequence diversity of the sample.\nSequencing has generated >350 million total reads for the three unselected samples and > 300 million total reads for the depleted library samples. The raw reads were trimmed to the size of the peptide gene and those containing internal ambiguous bases or being less than 60 bases in length were discarded. The nucleotide sequences were translated into amino acid sequences and the peptides lacking N-terminal methionine or deviating from the size of the expected sequence were eliminated. Peptides with <100 reads in each of the pApi(Glu) samples were also discarded. Subsequently, the filtered data underwent differential abundance analysis using the standard workflow of edgeR within the R/Bioconductor package ([27]). This analysis generated logFC (the log2-fold change of unique peptides between Glu and Ara samples), q-values (adjusted P-values with the FDR correction), and log10 CPM values (log counts per million), detailed in Dataset 1. A volcano plot was generated in R to visualize the differential abundance of unique peptides based on these parameters.",
  "key": {"[1]": {"conditions": "sheet Negative Selection logFC>1, q<0.005 (putatively functional variants), arabinose vs glucose, endogenously expressed peptide"}, "[2]": {"conditions": "sheet diff-NS-All, induced (0.05% arabinose) vs non-induced (2% glucose), endogenously expressed peptide with N-terminal Met"}},
  "data": [
    {"substance": "MGNNRKVYIGEPRPPYPRL* [endogenously expressed Api library variant K6,G10,E11,Y16 (numbering includes Met)]", "values": [
      {"measurement": "Ara/Glu: logFC", "setting": "[1]", "value": -4.01},
      {"measurement": "Ara/Glu: logFC", "setting": "[2]", "value": -4.01}
    ]},
    {"substance": "MGNNRNVYIAQPRPYHPRI* [endogenously expressed Api library variant N6,A10,Y15,I19 (numbering includes Met)]", "values": [
      {"measurement": "Ara/Glu: logFC", "setting": "[2]", "value": -4.88}
    ]},
    {"substance": "MTNNRKVYEPEPRPPHPRL* [endogenously expressed Api library variant T2,K6,E9,E11 (numbering includes Met)]", "values": [
      {"measurement": "Ara/Glu: logFC", "setting": "[1]", "value": -4.06},
      {"measurement": "Ara/Glu: logFC", "setting": "[2]", "value": -4.06}
    ]},
    {"substance": "MLNNIGVQVPKPRPPHPRL* [endogenously expressed Api library variant L2,I5,G6,Q8,V9,K11 (numbering includes Met)]", "values": [
      {"measurement": "Ara/Glu: logFC", "setting": "[2]", "value": -3.95}
    ]}
  ]
}
